Earlier results, collected in article PMC3532212 (PLoS ONE, 2012).

Legend:
Wistar rats = tested on: Wistar rats; set-up: method as in PMID 17006328; settings: cited from earlier work
anesthetized guinea pigs = tested on: anesthetized guinea pigs; set-up: method as in PMID 15642767; settings: i.v. bolus, highest tested dose 0.03 mg/kg/d; cited from earlier work
disease-relevant model = tested on: disease-relevant model; set-up: method as in PMID 15642767; settings: cited from earlier work
mice = tested on: mice; set-up: method as in PMID 14747617; settings: wild type mice; cited from earlier work
S1P1 receptor = tested on: S1P1 receptor; set-up: method as in PMID 15975516; settings: cited from earlier work
[1] = tested on: FTY720-induced bradycardia; set-up: method as in PMID 20097776; settings: in vivo; cited from earlier work

NC(CO)(CO)CCc1ccc(Sc2cccc(OCc3ccccc3)c2)cc1Cl [KRP-203]
effect on heart rate (Wistar rats; 0.03 mg/kg): no effect on heart rate | acute bradycardia, heart rate below baseline (Wistar rats; 0.1 and 0.3 mg/kg): ~150 beats/min | effect on heart rate (anesthetized guinea pigs): no effect on heart rate | efficacious dose in a disease-relevant model (disease-relevant model): 0.1 to 1.0 mg/kg/day

CCCCCCCCCCCCC/C=C/[C@@H](O)[C@@H](N)COP(=O)(O)O [S1P, Sphingosine-1-phospate]
effect on heart rate (mice): reductions in heart rate

FC(F)(F)c1cccc(-c2noc(-c3cc(-c4ccccc4)c(C(F)(F)F)s3)n2)c1 [SEW2871]
S1P1 receptor internalization (S1P1 receptor): elicit S1P1 receptor internalization

CC(C)(C)C(=O)C(=Nc1ccc(Cl)cc1)NNc1ccc(Cl)cc1 [TY-52156]
effect on FTY720-induced bradycardia [1]: partially inhibit
